Biological target: T1, ΔF508 mutant CFTR (Homo sapiens, UniProt P13569, DEL508-508)
T1 construct: expressed in transfected cells; host or cells: Fischer rat thyroid (FRT) cells
Assay: Fluorescence Assay (halide-sensitive YFP, iodide influx) for ΔF508 mutant CFTR activity
Format: cell-based
Settings: FRT cells expressing ΔF508-CFTR and YFP-H148Q/I152L, incubated 27° C. 20-24 h; forskolin (20 μM) and test compounds (20 μM) for 20 min; rate of fluorescence quenching by I−, normalized to forskolin alone
Source text: The ΔF508 mutant CFTR activities of the CFTR modulators are detected using the Fluorescence Assay developed by Pedemonte (Pedemonte N., et al., Antihypertensive 1,4-dihydropyridines as correctors of the cystic fibrosis transmembrane conductance regulator channel gating defect caused by cystic fibrosis mutations, Mol. Pharmacol., 2005, 68, 1736-1746).
Fischer rat thyroid (FRT) cells, stably transfected with ΔF508 were retransfected with the YFP-H148Q/I152L fluorescent protein. The cells were plated (100,000 cells/well) on black 96-well microplates with clear plastic bottom (Corning Life Sciences, Acton, Mass.).
The 96-well microplates containing FRT cells expressing F508-CFTR and the halide-sensitive YFP were incubated at 27° C. for 20 to 24 h to allow rescue of the mutant protein to the plasma membrane. After incubation, cells were washed with PBS (containing 137 mM NaCl, 2.7 mM KCl, 8.1 mM Na2HPO4, 1.5 mM KH2PO4, 1 mM CaCl2, and 0.5 mM MgCl2) and stimulated for 20 min with forskolin (20 μM) and test compounds (20 μM) in a final volume of […] Microplates were then transferred to a microplate reader for CFTR activity determination.

T1 sequence (P13569 with tags, fused parts or gaps DEL508-508): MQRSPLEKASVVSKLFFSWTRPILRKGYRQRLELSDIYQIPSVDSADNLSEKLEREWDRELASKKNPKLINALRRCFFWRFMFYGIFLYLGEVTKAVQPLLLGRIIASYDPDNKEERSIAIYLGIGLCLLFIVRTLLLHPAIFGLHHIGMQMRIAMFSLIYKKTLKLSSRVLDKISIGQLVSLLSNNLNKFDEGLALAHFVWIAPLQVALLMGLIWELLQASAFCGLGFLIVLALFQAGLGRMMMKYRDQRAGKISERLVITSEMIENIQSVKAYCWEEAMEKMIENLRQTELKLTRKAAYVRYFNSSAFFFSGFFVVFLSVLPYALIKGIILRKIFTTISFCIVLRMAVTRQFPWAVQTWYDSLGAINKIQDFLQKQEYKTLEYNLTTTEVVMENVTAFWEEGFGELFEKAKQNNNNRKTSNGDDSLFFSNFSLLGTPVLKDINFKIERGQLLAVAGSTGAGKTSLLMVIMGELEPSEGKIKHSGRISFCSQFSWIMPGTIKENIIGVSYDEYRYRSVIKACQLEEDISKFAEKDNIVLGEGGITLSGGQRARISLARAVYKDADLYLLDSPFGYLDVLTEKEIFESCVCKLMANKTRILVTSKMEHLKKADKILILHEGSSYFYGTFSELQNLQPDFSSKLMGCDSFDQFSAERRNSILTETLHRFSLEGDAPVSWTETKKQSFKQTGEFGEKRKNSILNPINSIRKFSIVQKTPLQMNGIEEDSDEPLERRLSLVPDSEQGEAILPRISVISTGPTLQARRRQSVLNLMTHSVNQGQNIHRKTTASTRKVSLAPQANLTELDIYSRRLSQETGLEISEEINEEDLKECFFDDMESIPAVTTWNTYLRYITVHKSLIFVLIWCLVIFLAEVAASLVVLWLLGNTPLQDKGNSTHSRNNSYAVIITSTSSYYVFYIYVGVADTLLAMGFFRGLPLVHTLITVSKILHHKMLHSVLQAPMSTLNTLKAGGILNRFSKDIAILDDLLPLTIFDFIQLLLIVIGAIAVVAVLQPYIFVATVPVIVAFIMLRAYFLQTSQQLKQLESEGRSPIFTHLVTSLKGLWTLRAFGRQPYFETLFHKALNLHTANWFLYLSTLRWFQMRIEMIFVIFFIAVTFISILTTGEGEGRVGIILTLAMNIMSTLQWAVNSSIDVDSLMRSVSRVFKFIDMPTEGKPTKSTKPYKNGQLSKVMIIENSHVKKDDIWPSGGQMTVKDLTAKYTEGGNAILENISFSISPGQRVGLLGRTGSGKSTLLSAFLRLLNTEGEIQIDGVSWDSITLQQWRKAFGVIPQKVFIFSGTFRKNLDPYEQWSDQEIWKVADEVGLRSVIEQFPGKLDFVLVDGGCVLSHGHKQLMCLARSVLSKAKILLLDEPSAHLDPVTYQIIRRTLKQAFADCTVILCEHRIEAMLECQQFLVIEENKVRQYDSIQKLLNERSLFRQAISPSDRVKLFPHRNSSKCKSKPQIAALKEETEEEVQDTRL

Row | Structure (SMILES) | CFTR Activity
1 | Cl.Nc1cc(F)c(-c2c(F)cccc2F)nc1C(=O)Nc1cnsc1OCC1CNC1 [Example 32, 3-amino-N-(5-(azetidin-3-ylmethoxy)isothiazol-4-yl)-6-(2,6-difluorophenyl)-5-fluoropicolinamide hydrochloride] | 0.3
2 | Cl.NCC(CCl)Oc1sncc1NC(=O)c1nc(-c2c(F)cccc2F)c(F)cc1N (centres unmarked) [Example 33, 3-amino-N-(5-((1-amino-3-chloropropan-2-yl)oxy)isothiazol-4-yl)-6-(2,6-difluorophenyl)-5-fluoropicolinamide hydrochloride] | 1.6
3 | Cl.NCC(CCl)COc1sncc1NC(=O)c1nc(-c2c(F)cccc2F)c(F)cc1N (centres unmarked) [Example 34, 3-amino-N-(5-(3-amino-2-(chloromethyl)propoxy)isothiazol-4-yl)-6-(2,6-difluorophenyl)-5-fluoropicolinamide hydrochloride] | 1.6
4 | Cl.Nc1cc(F)c(-c2c(F)cccc2F)nc1C(=O)Nc1cnsc1OCC1CCCNC1 (centres unmarked) [Example 35, 3-amino-6-(2,6-difluorophenyl)-5-fluoro-N-(5-(piperidin-3-ylmethoxy)isothiazol-4-yl)picolinamide hydrochloride] | 1.6
5 | Cl.NCCCCOc1sncc1NC(=O)c1nc(-c2c(F)cccc2F)c(F)cc1N [Example 36, 3-amino-N-(5-(4-aminobutoxy)isothiazol-4-yl)-6-(2,6-difluorophenyl)-5-fluoropicolinamide hydrochloride] | 1.8
6 | Cl.Nc1cc(F)c(-c2c(F)cccc2F)nc1C(=O)Nc1cnsc1OC1CCCC(N)C1 (centres unmarked) [Example 37, 3-amino-N-(5-((3-aminocyclohexyl)oxy)isothiazol-4-yl)-6-(2,6-difluorophenyl)-5-fluoropicolinamide hydrochloride] | 2.9
7 | Cl.Nc1cc(F)c(-c2ccccc2)nc1C(=O)Nc1cnsc1OC1CCNC1 (centres unmarked) [Example 38, 3-amino-5-fluoro-6-phenyl-N-(5-(pyrrolidin-3-yloxy)isothiazol-4-yl)picolinamide hydrochloride] | 1.3
8 | Cl.O=C(Nc1cnsc1OC1CCNCC1)c1ccc(F)c(-c2ccncc2)n1 [Example 39, 3-fluoro-N-(5-(piperidin-4-yloxy)isothiazol-4-yl)-[2,4′-bipyridine]-6-carboxamide hydrochloride] | 0.3
9 | Cl.O=C(Nc1cnsc1OC1CCCNCC1)c1nc(-c2c(F)cccc2F)ccc1F (centres unmarked) [Example 40, N-(5-(azepan-4-yloxy)isothiazol-4-yl)-6-(2,6-difluorophenyl)-3-fluoropicolinamide hydrochloride] | 1.4
10 | COc1cccc(F)c1-c1nc(C(=O)Nc2cnsc2OC2CCCNCC2)ccc1F.Cl (centres unmarked) [Example 41, N-(5-(azepan-4-yloxy)isothiazol-4-yl)-5-fluoro-6-(2-fluoro-6-methoxyphenyl)picolinamide hydrochloride] | 1.6
11 | Cl.O=C(Nc1cnsc1OC1CCCNCC1)c1ccc(C(F)(F)F)c(-c2c(F)cccc2F)n1 (centres unmarked) [Example 42, N-(5-(azepan-4-yloxy)isothiazol-4-yl)-6-(2,6-difluorophenyl)-5-(trifluoromethyl)picolinamide hydrochloride] | 0.4
12 | Cl.O=C(Nc1cnsc1OCC1CCNCC1)c1ccc(C(F)(F)F)c(-c2c(F)cccc2F)n1 [Example 43, 6-(2,6-difluorophenyl)-N-(5-(piperidin-4-ylmethoxy)isothiazol-4-yl)-5-(trifluoromethyl)picolinamide hydrochloride] | 0.3
13 | Cl.O=C(Nc1cnsc1OCC1CNC1)c1ccc(C(F)(F)F)c(-c2c(F)cccc2F)n1 [Example 44, N-(5-(azetidin-3-ylmethoxy)isothiazol-4-yl)-6-(2,6-difluorophenyl)-5-(trifluoromethyl)picolinamide hydrochloride] | 0.3
14 | Cl.O=C(Nc1cnsc1OC1CCNCC1)c1ccc(C(F)(F)F)c(-c2c(F)cccc2F)n1 [Example 45, 6-(2,6-difluorophenyl)-N-(5-(piperidin-4-yloxy)isothiazol-4-yl)-5-(trifluoromethyl)picolinamide hydrochloride] | 1.7
15 | Cl.N[C@H]1CC[C@H](Oc2sncc2NC(=O)c2ccc(C(F)(F)F)c(-c3c(F)cccc3F)n2)CC1 [Example 46, N-(5-(((1r,4r)-4-aminocyclohexyl)oxy)isothiazol-4-yl)-6-(2,6-difluorophenyl)-5-(trifluoromethyl)picolinamide hydrochloride] | 1
16 | O=C(Nc1cnsc1OCC1CCOCC1)c1ccc(C(F)(F)F)c(-c2c(F)cccc2F)n1 [Example 47] | 0.6
17 | Cl.Nc1cc(C(F)(F)F)c(-c2c(F)cccc2F)nc1C(=O)Nc1cnsc1OC1CCCNCC1 (centres unmarked) [Example 48, 3-amino-N-(5-(azepan-4-yloxy)isothiazol-4-yl)-6-(2,6-difluorophenyl)-5-(trifluoromethyl)picolinamide hydrochloride] | 0.7
18 | Cl.Nc1cc(C(F)(F)F)c(-c2c(F)cccc2F)nc1C(=O)Nc1cnsc1OCC1CCNCC1 [Example 49, 3-amino-6-(2,6-difluorophenyl)-N-(5-(piperidin-4-ylmethoxy)isothiazol-4-yl)-5-(trifluoromethyl)picolinamide hydrochloride] | 0.2
19 | Cl.Nc1cc(C(F)(F)F)c(-c2c(F)cccc2F)nc1C(=O)Nc1cnsc1OCC1CNC1 [Example 50, 3-amino-N-(5-(azetidin-3-ylmethoxy)isothiazol-4-yl)-6-(2,6-difluorophenyl)-5-(trifluoromethyl)picolinamide hydrochloride] | 0.1
20 | Cl.Nc1cc(C(F)(F)F)c(-c2c(F)cccc2F)nc1C(=O)Nc1cnsc1OC1CCNCC1 [Example 51, 3-amino-6-(2,6-difluorophenyl)-N-(5-(piperidin-4-yloxy)isothiazol-4-yl)-5-(trifluoromethyl)picolinamide hydrochloride] | 0.7
21 | Cl.Nc1cc(C(F)(F)F)c(-c2c(F)cccc2F)nc1C(=O)Nc1cnsc1O[C@H]1CC[C@H](N)CC1 [Example 52, 3-amino-N-(5-(((1r,4r)-4-aminocyclohexyl)oxy)isothiazol-4-yl)-6-(2,6-difluorophenyl)-5-(trifluoromethyl)picolinamide hydrochloride] | 4.6
22 | Cl.Nc1cc(C(F)(F)F)c(-c2ccccc2)nc1C(=O)Nc1cnsc1OC1CCNC1 (centres unmarked) [Example 53, 3-amino-6-phenyl-N-(5-(pyrrolidin-3-yloxy)isothiazol-4-yl)-5-(trifluoromethyl)picolinamide hydrochloride] | 0.4
23 | Cl.NCC(CCl)COc1sncc1NC(=O)c1ccc(C(F)(F)F)c(-c2c(F)cccc2F)n1 (centres unmarked) [Example 54, N-(5-(3-amino-2-(chloromethyl)propoxy)isothiazol-4-yl)-6-(2,6-difluorophenyl)-5-(trifluoromethyl)picolinamide hydrochloride] | 0.5
24 | Cl.NCC(CCl)COc1sncc1NC(=O)c1nc(-c2c(F)cccc2F)c(C(F)(F)F)cc1N (centres unmarked) [Example 55, 3-amino-N-(5-(3-amino-2-(chloromethyl)propoxy)isothiazol-4-yl)-6-(2,6-difluorophenyl)-5-(trifluoromethyl)picolinamide hydrochloride] | 0.5
25 | Cl.NCC(CO)COc1sncc1NC(=O)c1ccc(F)c(-c2c(F)cccc2F)n1 (centres unmarked) [Example 56, N-(5-(3-amino-2-(hydroxymethyl)propoxy)isothiazol-4-yl)-6-(2,6-difluorophenyl)-5-fluoropicolinamide hydrochloride] | 0.5
26 | Cl.NCC(CO)COc1sncc1NC(=O)c1nc(-c2c(F)cccc2F)c(F)cc1N (centres unmarked) [Example 57, 3-amino-N-(5-(3-amino-2-(hydroxymethyl)propoxy)isothiazol-4-yl)-6-(2,6-difluorophenyl)-5-fluoropicolinamide hydrochloride] | 1.8
27 | Cl.NCC(CO)COc1sncc1NC(=O)c1ccc(C(F)(F)F)c(-c2c(F)cccc2F)n1 (centres unmarked) [Example 58, N-(5-(3-amino-2-(hydroxymethyl)propoxy)isothiazol-4-yl)-6-(2,6-difluorophenyl)-5-(trifluoromethyl)picolinamide hydrochloride] | 2
28 | Cl.NCC(CO)COc1sncc1NC(=O)c1nc(-c2c(F)cccc2F)c(C(F)(F)F)cc1N (centres unmarked) [Example 59, 3-amino-N-(5-(3-amino-2-(hydroxymethyl)propoxy)isothiazol-4-yl)-6-(2,6-difluorophenyl)-5-(trifluoromethyl)picolinamide hydrochloride] | 2.3
29 | Cl.NC1CCCC(Oc2sncc2NC(=O)c2ccc(C(F)(F)F)c(-c3c(F)cccc3F)n2)C1 (centres unmarked) [Example 60, N-(5-((3-aminocyclohexyl)oxy)isothiazol-4-yl)-6-(2,6-difluorophenyl)-5-(trifluoromethyl)picolinamide hydrochloride] | 0.1
